Assay results reported in US20180303901A1, “Notch1 Decoy Antagonists Protect From Obesity-Induced Insulin Resistance and Fatty Liver” (The Trustees of Columbia University in the City of New York, priority 2013, published 2018).
“Also recorded” adds a separate entry of the source. Peptide text beside a SMILES is read from it. * marks the point of attachment. Cbz = O=C(OCc1ccccc1)*

Key:
[1] = system: N1-IC-transduced mice; experiment: Rapamycin treatment of Fc or N1-IC-transduced mice; type: in vivo, mouse; details: data not shown
Procedure: FIG. 9A-FIG. 9F: mTor inhibition prevents Notch-induced fatty liver. Data shown means±SEM. FIG. 9A: Fasn-luciferase in FAO hepatoma cells transfected with either Raptor or scrambled (scr) shRNA, transduced with either Fc (−) or N1-IC (Notch) adenovirus and treated for 16-h with 100 nM insulin. ***p<0.001 vs. Fc control, &p<0.001 vs. scrambled shRNA, #p<0.001 vs. no insulin. […]
Blood glucose was measured by glucose meter (OneTouch) and plasma insulin by ELISA (Millipore). […] Hepatic de novo lipogenesis was determined by measuring the amount of newly synthesized FA, as resolved by TLC, present in the liver 1 h after intraperitoneal injection of 1 mCi of 3H2O (Zhang 2006). Triglyceride secretion rate was measured after injection of Poloxamer 407, with serial measurement of plasma triglycerides (Li 2011).
(§1) Notch1-IC, Notch decoy (1-24), Fc and GFP adenoviruses have been described (Kitamura 2007; Funahashi 2011; Nakae 2003). We transduced primary hepatocytes or HEK 293 ceils at MOI 5 and FAO hepatoma cells at MOI 200, to achieve 90-100% infection efficiency as assessed by GFP expression. […]

[2] = system: primary hepatocytes; experiment: Western blots of primary hepatocytes transfected with Raptor cDNA, transduced with Fc or Notch1, cycloheximide; type: cell-based, mouse; details: cycloheximide for 2-h
Procedure: FIG. 11A-FIG. 11H: Notch induces mTorc1 complex stability. FIG. 11A: Western blots of liver proteins from 5h-fasted L-Rbpj and control mice (mTor and Actin blots reproduced from FIG. 2n), FIG. 11B: Western blot of liver protein from chow-fed, 12-week-old mice transduced with Fc or N1-IC, sacrificed at day 7, after overnight fasting. FIG. 11C: Western blots from FAO hepatoma cells transduced with either Fc or N1-IC, with or without treatment with MG132 for 4-h. FIG. 11D: Western blots of primary hepatocytes, transfected with Raptor cDNA, then transduced with Fc or Notch1 and treated for 2-h with cycloheximide. […]
We isolated and cultured primary mouse hepatocytes as described (Pajvani 2011). […] We measured fatty acid oxidation as described (Li 2011), with the following modifications: primary hepatocytes were incubated serum-free medium with 1.5% fatty-acid free BSA (Sigma) containing 0.1 mM cold oleic acid and 1 μCi 14C-oleic acid (PerkinElmer Life Sciences) for 4 h. […] Trapped 14CO2 on the alkalinized filter paper was measured as described (Li 2011). We measured lipogenesis as described (Yecies 2011), with the following modifications: hepatocytes were stimulated with 10 nM insulin in serum-free DMEM for 2 h, then labeled with 14C-acetate (PerkinElmer Life Sciences) for 2 h. […]

[3] = system: FAO hepatoma cells; experiment: Western blots / gene expression in FAO hepatoma cells transduced with Fc or N1-IC; type: cell-based; details: MG132 for 4-h
Description: FIG. 8A-FIG. 8F: Activation of hepatic Notch increases mTor, lipogenic genes, and steatosis in chow-fed mice. *p<0.05, **p<0.01, ***p<0.001 vs. Fc or GFP. Protein expression normalized to either Actin or Tubulin. Mice were 8-week-old C57Bl/6 males, unless otherwise indicated. […] FIG. 8D: Liver Western blots in mice transduced with GFP or N1-IC adenovirus, sacrificed after a 16-h fast followed by 2-h refeeding. (n=6/group). FIG. 8E: Gene expression analysis in mice transduced with GFP or N1-IC adenovirus, sacrificed after a 16-h fast followed by 2-h refeeding. (n=6/group). FIG. 8F: De novo lipogenesis in hepatocytes after transduction with GFP or N1-IC adenovirus and incubation with 10 nM insulin (triplicate wells, representative of 2 individual experiments). FIG. 8G: Hepatic triglyceride content 7-d after GFP or N1-IC transduction in 16-h fasted, 24-week-old, chow-fed Cre- and L-Rbpj mice. […] FIG. 8K-FIG. 8M: Quantitation of the phospho/total mTor, 4E-BP1 and S6k levels from the experiments in FIG. 8J. […]
as §1

CO[C@H]1C[C@@H]2CC[C@@H](C)[C@@](O)(O2)C(=O)C(=O)N2CCCC[C@H]2C(=O)O[C@H]([C@H](C)C[C@@H]2CC[C@@H](O)[C@H](OC)C2)CC(=O)[C@H](C)/C=C(\C)[C@@H](O)[C@@H](OC)C(=O)[C@H](C)C[C@H](C)/C=C/C=C/C=C/1C [rapamycin]
effect of rapamycin on glucose tolerance [1]: mild glucose intolerance

C[C@@H]1C[C@@H]([C@H](O)CC2CC(=O)NC(=O)C2)C(=O)[C@@H](C)C1 [cycloheximide]
effect of N1-IC on Raptor protein under protein synthesis inhibition [2]: fully reversed; also recorded: prevents

CC(C)C[C@@H](C=O)NC(=O)[C@H](CC(C)C)NC(=O)[C@H](CC(C)C)NC(=O)OCc1ccccc1 [MG132] (Cbz-Leu-Leu-Leu-aldehyde)
effect of N1-IC on Raptor protein under proteosomal inhibition [3]: independent
